SMILES strings stand for the structures.

In the first assay the target is T1, Nav 1.7 (Homo sapiens, UniProt Q15858).
T1 construct: expressed in transfected cells
T1 sequence (Q15858 whole entry): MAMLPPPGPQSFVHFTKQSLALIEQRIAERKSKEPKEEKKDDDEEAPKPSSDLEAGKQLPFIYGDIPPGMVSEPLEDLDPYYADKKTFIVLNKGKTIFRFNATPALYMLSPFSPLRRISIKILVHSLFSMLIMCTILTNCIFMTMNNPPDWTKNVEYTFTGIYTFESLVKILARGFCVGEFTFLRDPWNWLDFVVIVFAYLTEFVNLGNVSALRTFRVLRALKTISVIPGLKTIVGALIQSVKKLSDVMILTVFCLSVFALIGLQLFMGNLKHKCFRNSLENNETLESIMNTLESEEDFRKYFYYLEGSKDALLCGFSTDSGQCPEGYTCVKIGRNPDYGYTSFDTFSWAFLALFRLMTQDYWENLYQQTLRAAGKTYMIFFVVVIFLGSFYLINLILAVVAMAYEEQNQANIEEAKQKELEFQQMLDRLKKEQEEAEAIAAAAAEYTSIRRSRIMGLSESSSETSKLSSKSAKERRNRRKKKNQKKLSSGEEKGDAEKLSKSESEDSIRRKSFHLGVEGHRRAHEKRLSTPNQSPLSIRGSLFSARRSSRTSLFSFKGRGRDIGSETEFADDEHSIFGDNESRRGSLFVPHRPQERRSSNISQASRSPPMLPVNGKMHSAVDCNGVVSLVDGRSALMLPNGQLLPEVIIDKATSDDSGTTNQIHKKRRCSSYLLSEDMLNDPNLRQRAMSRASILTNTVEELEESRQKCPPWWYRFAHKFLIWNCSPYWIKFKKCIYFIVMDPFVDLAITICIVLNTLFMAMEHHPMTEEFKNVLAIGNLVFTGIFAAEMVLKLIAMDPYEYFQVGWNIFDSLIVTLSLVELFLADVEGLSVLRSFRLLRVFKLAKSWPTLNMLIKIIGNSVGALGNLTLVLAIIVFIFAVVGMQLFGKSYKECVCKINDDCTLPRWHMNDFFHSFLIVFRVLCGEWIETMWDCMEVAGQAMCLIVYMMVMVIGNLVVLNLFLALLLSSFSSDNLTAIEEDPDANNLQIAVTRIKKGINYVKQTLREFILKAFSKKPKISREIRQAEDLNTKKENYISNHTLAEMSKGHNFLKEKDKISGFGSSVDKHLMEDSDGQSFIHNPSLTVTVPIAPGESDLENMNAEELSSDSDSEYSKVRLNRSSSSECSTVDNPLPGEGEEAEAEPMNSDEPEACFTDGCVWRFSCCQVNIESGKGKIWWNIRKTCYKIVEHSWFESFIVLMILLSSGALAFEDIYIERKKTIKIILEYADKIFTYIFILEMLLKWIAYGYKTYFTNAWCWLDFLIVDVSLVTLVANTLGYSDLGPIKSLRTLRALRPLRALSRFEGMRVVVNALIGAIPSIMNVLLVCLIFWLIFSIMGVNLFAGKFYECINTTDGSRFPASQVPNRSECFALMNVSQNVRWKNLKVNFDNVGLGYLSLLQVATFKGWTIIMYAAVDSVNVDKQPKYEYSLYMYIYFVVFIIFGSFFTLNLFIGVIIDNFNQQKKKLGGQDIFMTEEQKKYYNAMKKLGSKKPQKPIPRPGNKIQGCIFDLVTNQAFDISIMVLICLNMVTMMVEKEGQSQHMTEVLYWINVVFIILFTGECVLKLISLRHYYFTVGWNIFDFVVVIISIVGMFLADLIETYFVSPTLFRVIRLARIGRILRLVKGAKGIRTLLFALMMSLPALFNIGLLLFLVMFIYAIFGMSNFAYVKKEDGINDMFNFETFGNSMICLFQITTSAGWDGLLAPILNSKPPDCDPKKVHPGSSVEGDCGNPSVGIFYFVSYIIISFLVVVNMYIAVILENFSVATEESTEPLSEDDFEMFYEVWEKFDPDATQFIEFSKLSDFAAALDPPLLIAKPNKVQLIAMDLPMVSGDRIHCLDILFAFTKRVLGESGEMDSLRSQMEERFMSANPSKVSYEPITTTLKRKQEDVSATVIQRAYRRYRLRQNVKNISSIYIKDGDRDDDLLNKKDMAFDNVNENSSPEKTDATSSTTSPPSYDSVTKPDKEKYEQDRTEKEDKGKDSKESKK
Briefly: Whole-cell voltage clamp electrophysiology, automated patch clamp (marker c in Table of Examples). The format is cell-based. Particulars: marker c = Automated patch clamp data; read-out: Nav 1.7 activity. A digest of the protocol:
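A voltage protocol weighted toward inactivated-state block was used to test compounds on stably expressing cells, with pulses from −65 mV holding to −10 mV test and −100 mV. Currents came from whole-cell automated patch-clamp recordings, either IonWorks Quattro or other automated instruments, usually in perforated-patch mode.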
Regarding `COCCOc1cccnc1-c1nc(-c2nc(N)nc(N(C)c3ccccc3)n2)no1` [Example 483, 6-{5-[3-(2-methoxyethoxy)pyridin-2-yl]-1,2,4-oxadiazol-3-yl}-2-N-methyl-2-N-phenyl-1,3,5-triazine-2,4-diamine], the IC50 stood at 2400 nM. On the same count and under the same terms, under `COCCN(c1ccccc1)c1nc(N)nc(-c2noc(-c3c(F)cccc3OC)n2)n1` [Example 437, 6-[5-(2-fluoro-6-methoxyphenyl)-1,2,4-oxadiazol-3-yl]-2-N-(2-methoxyethyl)-2-N-phenyl-1,3,5-triazine-2,4-diamine] stands 167 nM; under `CN(c1nc(N)nc(-c2noc(-c3ncccc3F)n2)n1)c1ccccc1F` [Example 475, 2-N-(2-fluorophenyl)-6-[5-(3-fluoropyridin-2-yl)-1,2,4-oxadiazol-3-yl]-2-N-methyl-1,3,5-triazine-2,4-diamine], 69 nM. On the same count and under the same terms, the same measure for `CN(c1ccccc1)c1nc(N)nc(-c2noc(C(=O)N3C[C@@H]4[C@@H](COc5ccccc5)[C@@H]4C3)n2)n1` [Example 406, 2-N-methyl-6-(5-{[-6-(phenoxymethyl)-3-azabicyclo[3.1.0]hexan-3-yl]carbonyl}-1,2,4-oxadiazol-3-yl)-2-N-phenyl-1,3,5-triazine-2,4-diamine]: 624 nM; for `CN(c1ccccc1)c1nc(N)nc(-c2noc(N3C[C@@H]4[C@@H](COCCC(F)(F)F)[C@@H]4C3)n2)n1` [Example 396, 2-N-methyl-2-N-phenyl-6-{5-[6-[(3,3,3-trifluoropropoxy)methyl]-3-azabicyclo[3.1.0]hexan-3-yl]-1,2,4-oxadiazol-3-yl}-1,3,5-triazine-2,4-diamine]: 1130 nM. Consider `Nc1nc(Nc2ccccc2)nc(-c2noc(C(=O)N3CCC(COCC(F)(F)F)CC3)n2)n1` [Example 461, 2-N-phenyl-6-[5-({4-[(2,2,2-trifluoroethoxy)methyl]piperidin-1-yl}carbonyl)-1,2,4-oxadiazol-3-yl]-1,3,5-triazine-2,4-diamine], for which the IC50 was determined as 1640 nM.

`CC(C)(C)OC(=O)N1CCC(c2nc(-c3nc(N)nc(Nc4ccccc4)n3)no2)CC1` [Example 512, tert-butyl 4-{3-[4-amino-6-(phenylamino)-1,3,5-triazin-2-yl]-1,2,4-oxadiazol-5-yl}piperidine-1-carboxylate]: the IC50 was found to be 603 nM. As for `CN(c1ccccc1)c1nc(N)nc(-c2noc(-c3ccc(C(F)(F)F)cn3)n2)n1` [Example 420, 2-N-methyl-2-N-phenyl-6-{5-[5-(trifluoromethyl)pyridin-2-yl]-1,2,4-oxadiazol-3-yl}-1,3,5-triazine-2,4-diamine], the IC50 came to 2300 nM. On the same count and under the same terms, under `CN(c1ccccc1)c1nc(N)nc(-c2noc(-c3ccc(CO)nc3)n2)n1` [Example 295, [5-(3-{4-Amino-6-[methyl(phenyl)amino]-1,3,5-triazin-2-yl}-1,2,4-oxadiazol-5-yl)pyridin-2-yl]methanol] stands 5190 nM. As for `CN(c1ccccc1)c1nc(N)nc(-c2noc(-c3cc(C(F)(F)F)[nH]n3)n2)n1` [Example 255, 2-N-methyl-2-N-phenyl-6-{5-[5-(trifluoromethyl)-1H-pyrazol-3-yl]-1,2,4-oxadiazol-3-yl}-1,3,5-triazine-2,4-diamine], the IC50 amounted to 6450 nM. In the case of `CN(c1ccccc1)c1nc(N)nc(-c2noc(-c3ccc(SCCC(F)(F)F)nc3)n2)n1` [Example 453, 2-N-methyl-2-N-phenyl-6-{5-{6-[(3,3,3-trifluoropropyl)sulfanyl]pyridin-3-yl}-1,2,4-oxadiazol-3-yl)-1,3,5-triazine-2,4-diamine], the IC50 stood at 121 nM.

With `COC(=O)c1ccc(-c2nc(-c3nc(N)nc(N(C)c4ccccc4)n3)no2)cn1` [Example 279, methyl 5-(3-{4-amino-6-[methyl(phenyl)amino]-1,3,5-triazin-2-yl}-1,2,4-oxadiazol-5-yl)pyridine-2-carboxylate], the IC50 was 444 nM. On the same count and under the same terms, the same measure for `CN(c1ccccc1)c1nc(N)nc(-c2noc([C@@H]3CCCN3C(=O)CC3CC3)n2)n1` [Example 450, 1-[(2S)-2-(3-{4-amino-6-[methyl(phenyl)amino]-1,3,5-triazin-2-yl}-1,2,4-oxadiazol-5-yl)pyrrolidin-1-yl]-2-cyclopropylethan-1-one]: 9530 nM; for `CN(c1ccccc1)c1nc(N)nc(-c2noc(C(=O)N3C[C@@H]4[C@@H](COCC5CC5)[C@@H]4C3)n2)n1` [Example 404, 6-(5-{[-6-[(cyclopropylmethoxy)methyl]-3-azabicyclo[3.1.0]hexan-3-yl]carbonyl}-1,2,4-oxadiazol-3-yl)-2-N-methyl-2-N-phenyl-1,3,5-triazine-2,4-diamine]: 3460 nM. The same measure, in the same setting: the same measure for `CN(c1ccccc1)c1nc(N)nc(-c2noc(-c3ccc(C(=O)OC4CCCC4)nc3)n2)n1` [Example 290, cyclopentyl 5-(3-{4-amino-6-[methyl(phenyl)amino]-1,3,5-triazin-2-yl}-1,2,4-oxadiazol-5-yl)pyridine-2-carboxylate]: 59 nM; for `CC(CC(F)(F)F)N1CCC(c2nc(-c3nc(N)nc(N(C)c4ccccc4)n3)no2)C1` (centres unmarked) [Example 205, 2-N-methyl-2-N-phenyl-6-{5-[1-(4,4,4-trifluorobutan-2-yl)pyrrolidin-3-yl]-1,2,4-oxadiazol-3-yl}-1,3,5-triazine-2,4-diamine]: 1530 nM.

On to `CC(C)OC1CN(c2nc(-c3nc(N)nc(N(C)c4ccccc4)n3)no2)C1` [Example 492, 6-[5-(3-Isopropoxyazetidin-1-yl)-[1,2,4]oxadiazol-3-yl]-N-methyl-N-phenyl-[1,3,5]triazine-2,4-diamine], for which the IC50 was over 8080 nM. Regarding `Nc1nc(Nc2ccccc2)nc(-c2noc(C(=O)N3CCC(SCC(F)(F)F)CC3)n2)n1` [Example 466, 2-N-phenyl-6-[5-({4-[(2,2,2-trifluoroethyl)sulfanyl]piperidin-1-yl}carbonyl)-1,2,4-oxadiazol-3-yl]-1,3,5-triazine-2,4-diamine], the IC50 was 740 nM. The same measure, in the same setting: under `CN(c1ccccc1)c1nc(N)nc(-c2noc(N3CCC(COC4CCC4)CC3)n2)n1` [Example 217, 6-{5-[4-(cyclobutoxymethyl)piperidin-1-yl]-1,2,4-oxadiazol-3-yl}-2-N-methyl-2-N-phenyl-1,3,5-triazine-2,4-diamine] stands 415 nM; under `COc1ccccc1Cc1nc(-c2nc(N)nc(N(C)c3ccccc3)n2)no1` [Example 199, 6-{5-[(2-methoxyphenyl)methyl]-1,2,4-oxadiazol-3-yl}-2-N-methyl-2-N-phenyl-1,3,5-triazine-2,4-diamine], 8730 nM. The same measure, in the same setting: under `CC1CCN(c2nc(-c3nc(N)nc(Nc4ccccc4)n3)no2)CC1` [Example 243, 6-[5-(4-methylpiperidin-1-yl)-1,2,4-oxadiazol-3-yl]-2-N-phenyl-1,3,5-triazine-2,4-diamine] stands 7950 nM; under `COC1CCN(c2nc(-c3nc(N)nc(Nc4cccc(F)c4)n3)no2)CC1` [Example 237, 2-N-(3-fluorophenyl)-6-[5-(4-methoxypiperidin-1-yl)-1,2,4-oxadiazol-3-yl]-1,3,5-triazine-2,4-diamine], 3990 nM. As to `CN(c1ccccc1)c1nc(N)nc(-c2noc(-c3ncccc3C(=O)NC3CCC3)n2)n1` [Example 371, 2-(3-{4-amino-6-[methyl(phenyl)amino]-1,3,5-triazin-2-yl}-1,2,4-oxadiazol-5-yl)-N-cyclobutylpyridine-3-carboxamide], the IC50 came to 7300 nM.

In the case of `CN(c1ccccc1)c1nc(N)nc(-c2noc(-c3ncccc3NC3CC3)n2)n1` [Example 481, 6-{5-[3-(Cyclopropylamino)pyridin-2-yl]-1,2,4-oxadiazol-3-yl}-2-N-methyl-2-N-phenyl-1,3,5-triazine-2,4-diamine], the IC50 worked out at 1900 nM.

The same assay, now with this note: marker c: Automated patch clamp data; read-out: Nav 1.7 activity.
Regarding `CN(c1cccc(Cl)c1)c1nc(N)nc(-c2noc(-c3cccs3)n2)n1` [Example 101, N-(3-Chlorophenyl)-N-methyl-6-(5-thiophen-2-yl-[1,2,4]oxadiazol-3-yl)-[1,3,5]triazine-2,4-diamine], the IC50 was determined as 206 nM.

Consider `CN(c1ccccc1)c1nc(N)nc(-c2noc(-c3cccc4c3OCC4)n2)n1` [Example 63, 6-[5-(2,3-Dihydro-benzofuran-7-yl)-[1,2,4]oxadiazol-3-yl]-N-methyl-N-phenyl-[1,3,5]triazine-2,4-diamine], for which the IC50 was 3380 nM. With `CN(c1nc(N)nc(-c2noc(-c3ccc(OCC4CC4)nc3)n2)n1)c1ccccc1F` [Example 134, 6-{5-[6-(cyclopropylmethoxy)pyridin-3-yl]-1,2,4-oxadiazol-3-yl}-2-N-(2-fluorophenyl)-2-N-methyl-1,3,5-triazine-2,4-diamine], the IC50 was 67 nM. Regarding `CN(c1ccccc1)c1nc(N)nc(-c2noc(-c3ncccc3N)n2)n1` [Example 51, 6-[5-(3-Amino-pyridin-2-yl)-[1,2,4]oxadiazol-3-yl]-N-methyl-N-phenyl-[1,3,5]triazine-2,4-diamine], the IC50 worked out at 3470 nM. Take `CN(c1ccccc1)c1nc(N)nc(-c2noc(N3CCCC3)n2)n1` [Example 131, N-Methyl-N-phenyl-6-(5-pyrrolidin-1-yl-[1,2,4]oxadiazol-3-yl)-[1,3,5]triazine-2,4-diamine]: the IC50 stood at 5110 nM. Regarding `Cc1ccc(-c2nc(-c3nc(N)nc(N(C)c4cccc(F)c4)n3)no2)o1` [Example 87, N-(3-Fluoro-phenyl)-N-methyl-6-[5-(5-methyl-furan-2-yl)-[1,2,4]oxadiazol-3-yl]-[1,3,5]triazine-2,4-diamine], the IC50 is 3490 nM. For `CC(C)N(c1ccccc1)c1nc(N)nc(-c2noc(-c3ccco3)n2)n1` [Example 30, 6-(5-Furan-2-yl-[1,2,4]oxadiazol-3-yl)-N-isopropyl-N-phenyl-[1,3,5]triazine-2,4-diamine], the IC50 was determined as 933 nM. Regarding `CN(c1nc(N)nc(-c2noc(-c3ccc(OCC4CC4)nc3)n2)n1)c1cccc(F)c1F` [Example 140, 6-{5-[6-(cyclopropylmethoxy)pyridin-3-yl]-1,2,4-oxadiazol-3-yl}-2-N-(2,3-difluorophenyl)-2-N-methyl-1,3,5-triazine-2,4-diamine], the IC50 came out at 85 nM.

The values are drawn from patent publication US8895733B2 (Novartis AG, priority 2010, dated 2014).
